This data set is described as follows: Solubility / precipitation of pemetrexed diacid in aqueous solution depending on pH. It is filed as physicochemical. To be noted: aqueous solutions with neutral or acidic pH.

As to `Nc1nc2[nH]cc(CCc3ccc(C(=O)N[C@@H](CCC(=O)O)C(=O)O)cc3)c2c(=O)[nH]1` [pemetrexed diacid, N-[4-[2-(2-amino-4,7-dihydro-4-oxo-1H-pyrrolo[2,3-d]pyrimidin-5-yl)ethyl]benzoyl]-L-glutamic acid], the solubility result is recorded as “very low”.

The values above are taken from patent publication US10272090B1, “Liquid pharmaceutical composition comprising pemetrexed” (SYNTHON B.V., priority 2014, dated 2019).
